Data on one compound can be found in US12053523B2, “Compositions comprising chemotherapeutic agents and checkpoint inhibitors and methods of use” (NORTH CAROLINA STATE UNIVERSITY, priority 2017, dated 2024).

Data set [1] in a line: GEM and aPDL1 release from PVA-TSPBA hydrogels. The class given is physicochemical. The conditions noted are these: 37° C. The method, then:
FIGS. 1A, 1B, 1C, 1D, 1E, and 1F show a schematic and characterization of in situ formed reactive oxygen species (ROS)-responsive PVA-TSPBA scaffold. […] Scale bar, 0.5 μm. Inset: a zoom-in image of the scaffold. Scale bar, 0.1 μm. […] Scale bar, 25 μm. […] FIGS. 1E and IF show cumulative release profiles of GEM (1e) and aPDL1 (1f) from hydrogels when incubated with PBS with or without H2O2 (1 mM).
The TSPBA can be oxidized and hydrolyzed when exposed to H2O2 in the TME, leading to the dissociation of the polymeric scaffold and the release of PVA and payloads. To verify the ROS-sensitive degradability of the hydrogels, samples were immersed in phosphate-buffered saline (PBS) containing […] H2O2 at 37° C. […] The release profiles of GEM and aPD-L1 were quantified using high-performance liquid chromatography (HPLC) and enzyme-linked immunosorbent assay (ELISA), respectively. […] The release pattern was further examined in vivo after the intratumor injection of the drug-loaded scaffolds in the B16F10 mouse model. […] These distinct release dynamics facilitated the delivery of GEM and aPD-L1 into the TME for the intended sequential effects.
Release studies were performed at 37° C. with constant agitation in PBS. […] The released GEM was analyzed by HPLC and the antibody release was determined by Rat IgG total ELISA kit (eBioscience).

Another data set concerns B16F10 cancer cells. In words: Treatment of B16F10 cancer cells in vitro with GEM (flow cytometry, immunofluorescence, western blot). Format: cell-based, mouse. The protocol:
FIGS. 7A and 7B show the effects of GEM to cancer cells in vitro.
Circulating type 1 T helper (Th1) cytokines were also measured before and after GEM@Gel implantation (FIG. 6g).
(§1) The mouse melanoma cell line B16F10 and mouse mammary carcinoma cell line 4T1 were purchased from the American Type Culture Collection. B16F10-luc-GFP and 4T1-luc-GFP cells were gifts from Dr. Leaf Huang at the University of North Carolina at Chapel Hill. B16F10 cells were maintained in Dulbecco's Modified Eagle Medium (Gibco, Invitrogen) supplemented with 10% fetal bovine serum (Invitrogen, Carlsbad, CA), 100 U/mL penicillin (Invitrogen), and 100 […] (Invitrogen). 4T1 cells were maintained in RPMI-1640 Medium (Gibco, Invitrogen) supplemented with 10% fetal bovine serum (Invitrogen, Carlsbad, CA), 100 U/mL penicillin (Invitrogen), and 100 […] (Invitrogen). Master and working cell banks were generated immediately upon receipt. The third and fourth passages were used for the experiments. Cells were tested every three months to exclude the presence of mycoplasma. Authentication of cells was not performed after receipt.

The subject of the next data set is 4T1 cancer cells. Briefly: Effects of GEM in 4T1 cells in vitro (PD-L1 by flow cytometry). The class given is cell-based, mouse. The conditions noted are these: GEM 0, 1, 2, 5, 10 μM for 48 hours, remaining live cells; hydrochloride. The protocol: The data are shown as mean±SD. Error bars are based on at least triplicate measurements. P value: *, P<0.05.
4T1 cells were reported to express low levels of PD-L1. […] For in vivo study, 4T1 were inoculated subcutaneously into the right flank of female BABL/c mice. After 7 days, the mice bearing 4T1 tumors were treated with GEM@Gel (200 μL, 10% w/w) (GEM: 5 mg/kg), aPD-L1@Gel (aPDL1: 50 μg per mouse) or GEM-aPD-L1@Gel (aPD-L1: 50 μg per mouse, GEM: 5 mg/kg).
as §1, with “Authentication of cells was not performed after receipt.” left out

“Also recorded” adds a separate entry of the source. Structures can show the parent of a compound that is named as a salt.

Turning to `Nc1ccn([C@@H]2O[C@H](CO)[C@@H](O)C2(F)F)c(=O)n1` [GEM, Gemcitabine hydrochloride], the “Release from the hydrogel in H2O2 solution compared to control PBS” value in data set [1] (H2O2 1 mM vs PBS) is “in a triggered manner”. Further, in data set [1] (H2O2 solution (1 mM) in PBS, HPLC), the “Release of GEM from the hydrogel” value was “great majority of GEM was released within one day”. The “PD-L1 on surviving B16F10 cells” value with B16F10 cancer cells (GEM 5 μM, within 24 hours) is recorded as “significant PD-L1 upregulation”. Moreover, the “Dose and time dependence of PD-L1 expression on B16F10 cancer cells” value with B16F10 cancer cells (flow cytometry, immunofluorescence, western blot) was “GEM-dose- and time-dependent”. Moreover, in the data set on B16F10 cancer cells (in vitro), the “Cell death of B16F10 cancer cells” value is on record as “resulted in cell death” and the “Expression of PD-L1 in surviving B16F10 cells” value was “increased expression of PD-L1”. Besides, the “PD-L1 expression in 4T1 cancer cells” value in the data set on 4T1 cancer cells is “induced PD-L1 expression; also recorded: PD-L1 upregulation”.
